Laboratory results taken from paper PMC11459966, “Oral pharmacokinetics and efficacy of oral phospholipid remdesivir nucleoside prodrugs against SARS-CoV-2 in mice” (Antimicrobial Agents and Chemotherapy, 2024).
Like-named read-outs stand apart in the source and are kept apart here.

Assays:
[1] = system: SARS-CoV-2 isolate USA-WA1/2020
[2] = 5-day oral tolerability study with terminal pharmacokinetics in BALB/c mice; assay type: in vivo; settings: 80 mg/kg or 100 mg/kg daily PO
Experimental: Fig 3 Oral RVn prodrugs maintain high serum levels after repeated dosing in mice and hamsters. Multiple-dose oral tolerability and pharmacokinetics in mice and Syrian hamsters: (A and B) 5-day oral tolerability study in BALB/c mice with pharmacokinetics obtained after the final dose. Male 20–22 g mice were given the indicated drugs at (A) 80 mg/kg or (B) 100 mg/kg PO daily in 0.1 M sodium carbonate/bicarbonate pH 9 for 5 days. Plasma was obtained after the last dose at 1, 3, 6, and 12 h (In Vivo Technologies, Moffatt Field, CA). (C) 7-day oral tolerability study in Syrian hamsters with pharmacokinetics obtained after the final dose. […] All plasma samples were analyzed to determine prodrug levels (Aliri Bio, Colorado Springs, CO).
After fortification, 50 µL of plasma was crashed with 400 µL of methanol containing 10 ng/mL of the internal standard (V2066). One hundred fifty microliters of the supernatant was removed and diluted with 150 µL of water in a clean 96 well injection plate.
Chromatography for the prodrugs was performed on a Raptor Biphenyl (2.1 × 50) column at a flow rate of 0.5 mL/min. A gradient method starting at 60% B (0.1% formic acid in 90:10 methanol:acetonitrile) for 30 s and then ramping to 95% B over 2.5 min. This composition was held for 1.0 min before being returned to starting conditions and re-equilibration to 40% A (10 mM ammonium formate with 0.2% formic acid in water).
Oral pharmacokinetic studies were carried out at In Vivo Technologies (Moffatt Field, CA) in male BALB/c mice, 22–23 g under IACUC protocol number IVT-11–010Y12 (LifeSource Animal Care and Use Committee). […] Blood was obtained by facial vein or terminal cardiac puncture at the indicated times and plasma was frozen for analysis. Similar procedures were followed for 5-day tolerability and terminal dose pharmacokinetic studies in mice at oral daily doses of 80 or 100 mg/kg.

[3] = Single dose PO or IV plasma pharmacokinetics and tolerability in BALB/c mice; settings: BALB/c mice
Vero-TMPRSS2 cells = assay: Cell viability assay (CellTiter-Glo), Vero-TMPRSS2; assay type: cell-based, African green monkey; settings: 48 h incubation
Experimental: Cell viability assays (Table 1) were performed as previously described ([7]). Cells were cultured and seeded as per in vitro antiviral studies in opaque walled 96-well cell culture plates and incubated overnight for Huh7.5, A2T2-A549, and Vero-E6-TMPRSS2 cells and for 2 days for Calu-3 cells. Compounds or controls were added at the indicated concentrations in a total volume of 100 µL, and cells were incubated for 48 h. An equal volume of CellTiter-Glo reagent (Promega, Cat. #G7570) or CellTiter-Glo 2.0 reagent (Promega, Cat. #G9241) was added and mixed, and luminescence was recorded on a Veritas Microplate Luminometer (Turner BioSystems) or a Spark Multimode plate reader (Tecan) according to manufacturer instructions. Percent viability was normalized to DMSO controls, and CC50 values were derived from best fit curves calculated in Prism 10.

[4] = system: SARS-CoV-2 isolate USA-WA1/2020; remark: listed apart in the source
Calu-3 cells = system: Calu-3 cells; parameters: method as in PMID 37040439; settings: Calu-3, CellTiter-Glo, previously published, identical conditions ref 7; cited from earlier work
[5] = system: SARS-CoV-2 isolate USA-WA1/2020; assay: microbe, parasite or virus in culture; assay type: cell-based
[6] = system: SARS-CoV-2 isolate USA-WA1/2020; parameters: method as in PMID 37040439; settings: Calu-3, dotted lines of Fig. 2 and 3 ref 7; read-out: in vitro EC90 for SARS-CoV-2 infection in Calu-3 cells; cited from earlier work
A2T2-A549 cells = assay: Cell viability assay (CellTiter-Glo), A2T2-A549; settings: A2T2-A549, CellTiter-Glo, 48 h incubation
Huh7.5 cells = system: Huh7.5 cells; parameters: method as in PMID 37040439; settings: Huh7.5, CellTiter-Glo, previously published, identical conditions ref 7; cited from earlier work
[7] = system: SARS-CoV-2 isolate USA-WA1/2020; remark: listed apart in the source
[8] = parameters: method as in PMID 34937145; settings: early administration, non-hospitalized high-risk individuals ref 5; cited from earlier work

Question: For `CCCCCCCCCCCCCCCCCCOCC(COP(=O)(O)OC[C@H]1O[C@@](C#N)(c2ccc3c(N)ncnn23)[C@H](O)[C@@H]1O)OCc1ccc(C#N)cc1` (stereo partly drawn) [Compound V2067], which “Relative activity vs RVn (RVN EC50/Test Compound EC50)” value ([1]; Vero-TMPRSS2) is on record?
Answer: 23.4×

Question: What about the “SI (CC50/EC50)” value ([1]; Vero-TMPRSS2) of the same molecule?
Answer: 1,239

Question: And the EC50 ([1]; read-out: EC50 μM ± SD, Vero-TMPRSS2 cells, 32 hpi)?
Answer: 0.046 ± 0.014 µM

Question: What about the EC90 ([1]; read-out: EC90 μM ± SD, Vero-TMPRSS2 cells, 32 hpi) of the same molecule?
Answer: 0.107 ± 0.02 µM

Question: And the “tolerability of once-daily oral doses for 5 days” value [2]?
Answer: no adverse clinical effects were noted

Question: And the “tolerability of single escalating oral doses” value ([3]; 20, 60 or 180 mg/kg single oral dose)?
Answer: well tolerated with no appreciable adverse effects

Question: What about the AUC ([3]; IV, 7 mg/kg, plasma) of the same molecule?
Answer: 36.16 µM·h

Question: What about the Cmax ([3]; IV, 7 mg/kg, plasma) of the same molecule?
Answer: 116 µM

Question: What about the T1/2 ([3]; IV, 7 mg/kg, plasma) of the same molecule?
Answer: 0.23 h

Question: And the AUC ([3]; Oral, 20 mg/kg)?
Answer: 64.70 µM·h

Question: And the CL/F ([3]; Oral, 20 mg/kg)?
Answer: 0.373 L/h/kg

Question: What about the Cmax ([3]; Oral, 20 mg/kg) of the same molecule?
Answer: 8.83 µM

Question: And the T1/2 ([3]; Oral, 20 mg/kg)?
Answer: 4.06 h

Question: What about the Vd/F ([3]; Oral, 20 mg/kg) of the same molecule?
Answer: 2.18 L/kg

Question: What about the AUC ([3]; Oral, 60 mg/kg) of the same molecule?
Answer: 154.00 µM·h

Question: What about the CL/F ([3]; Oral, 60 mg/kg) of the same molecule?
Answer: 0.45 L/h/kg

Question: And the Cmax ([3]; Oral, 60 mg/kg)?
Answer: 24.9 µM

Question: And the T1/2 ([3]; Oral, 60 mg/kg)?
Answer: 6.83 h

Question: And the Vd/F ([3]; Oral, 60 mg/kg)?
Answer: 4.38 L/kg

Question: What about the AUC ([3]; Oral, 180 mg/kg) of the same molecule?
Answer: 332.00 µM·h

Question: What about the CL/F ([3]; Oral, 180 mg/kg) of the same molecule?
Answer: 0.49 L/h/kg

Question: And the Cmax ([3]; Oral, 180 mg/kg)?
Answer: 41 µM

Question: And the T1/2 ([3]; Oral, 180 mg/kg)?
Answer: 12.40 h

Question: And the Vd/F ([3]; Oral, 180 mg/kg)?
Answer: 8.74 L/kg

Question: And the “F% (oral bioavailability)” value ([3]; oral vs IV (7 mg/kg) prodrug exposure, printed on the 20 mg/kg oral lines)?
Answer: 57.0%

Question: What about the CC50 (Vero-TMPRSS2 cells) of the same molecule?
Answer: 57 µM

Question: What about the “Relative activity vs RVn (RVN EC50/Test Compound EC50)” value ([4]; A2T2-A549) of the same molecule?
Answer: 14.1×

Question: What about the “SI (CC50/EC50)” value ([4]; A2T2-A549) of the same molecule?
Answer: 386

Question: And the EC50 ([4]; read-out: EC50 μM ± SD, A2T2-A549 cells, 48 hpi)?
Answer: 0.213 ± 0.026 µM

Question: What about the EC90 ([4]; read-out: EC90 μM ± SD, A2T2-A549 cells, 48 hpi) of the same molecule?
Answer: 0.441 ± 0.071 µM

Question: And the CC50 (Calu-3 cells)?
Answer: 60.2 µM

Question: What about the “Relative activity vs RVn (RVN EC50/Test Compound EC50)” value ([5]; Calu-3) of the same molecule?
Answer: 12.5×

Question: What about the EC50 ([5]; Calu-3 cells, 44–48 hpi) of the same molecule?
Answer: 0.053 ± 0.018 µM

Question: What about the EC90 ([5]; Calu-3 cells, 44–48 hpi) of the same molecule?
Answer: 0.172 ± 0.14 µM

Question: And the EC90 [6]?
Answer: 0.082 µM

Question: What about the CC50 (A2T2-A549 cells) of the same molecule?
Answer: 82.3 µM

Question: And the CC50 (Huh7.5 cells)?
Answer: 47.2 µM

Question: What about the “Relative activity vs RVn (RVN EC50/Test Compound EC50)” value ([7]; Huh7.5) of the same molecule?
Answer: 37.7×

Question: And the “SI (CC50/EC50)” value ([7]; Huh7.5)?
Answer: 1,311

Question: What about the EC50 ([7]; read-out: EC50 μM ± SD, Huh7.5 cells, 48 hpi) of the same molecule?
Answer: 0.036 ± 0.014 µM

Question: And the EC90 ([7]; read-out: EC90 μM ± SD, Huh7.5 cells, 48 hpi)?
Answer: 0.096 ± 0.037 µM

Question: With `CCC(CC)COC(=O)[C@H](C)N[P@](=O)(OC[C@H]1O[C@@](C#N)(c2ccc3c(N)ncnn23)[C@H](O)[C@@H]1O)Oc1ccccc1` [remdesivir] as the molecule, how does the “decrease of the risk of hospitalization or death” value [8] read?
Answer: 87%
